Laboratory results reported in patent publication US6399590B2, “Phosphoglycolipid and methods for its use” (Corixa Corporation, priority 1998, dated 2002).

Test system: Adult mongrel dogs, left anterior descending coronary artery (LAD) occlusion/reperfusion
Experiment: Infarct size in the dog, 60 min LAD occlusion and 3 h reperfusion
Assay type: in vivo
Details: AG 30 mg/kg alone, 60 min before occlusion; mean ± SEM
Method: Adult mongrel dogs of either sex, weighing 19.0-30.0 kg were fasted overnight, anaesthetized with intravenous sodium barbital (200 mg/kg) and sodium pentobarbital (15 mg/kg), and ventilated with room air supplemented with 100% oxygen at an end expiratory pressure of 5-7 cm H2O to prevent atelectasis. Arterial blood pH PO2 and PCO2 were monitored at selected intervals by an automatic blood gas system and maintained within a normal physiological range (pH 7.35-7.45, PO2 10.6-16.0 kPa, PCO2 3,3-4.7 kPa) by adjusting the respiratory rate and oxygen flow and by an infusion of 1.5% sodium bicarbonate when necessary. Body temperature was maintained at 38±1° C. by using a heating pad.
A double pressure-transducer-tipped catheter was inserted into the aorta and left ventricle via the left carotid artery for measurements of aortic and left ventricular pressure. Left ventricular dP/dt was determined by electronic differentiation of the left ventricular pressure pulse.
A left thoracotomy was performed at the fifth intercostal space. The lung was retracted, the pericardium incised, and the heart suspended in a cradle. A 10-15 mm segment of the left anterior descending coronary artery (LAD) was dissected from surrounding tissue. […]
Regional myocardial blood flow was measured by the radioactive microsphere technique. […]

**Q.** With `N=C(N)NN` [AG, aminoguanidine, reference compound] as the molecule, how does the “IS/AAR(%) (infarct size / area at risk)” value read?
**A.** 22.4 ± 2.8%
